According to patent US20160271263A1 (Novo Nordisk A/S, priority 2010, published 2016):
Numbered stars: 1 amine (or outer) side, 2 acyl side, 3 side chain; on linkers, the order of the positions; unused ones are H or OH. Side chains are listed from the residue outwards. Peptide text beside a SMILES is read from it. * marks the point of attachment. C18 diacid = O=C(O)CCCCCCCCCCCCCCCCC(=O)*; γGlu = O=C(O)[C@H](CCC(=O)[*:2])N[*:1]; AEEA = NCCOCCOCC(=O)O

Molecular target: glucagon receptor (Homo sapiens, UniProt P47871)
Sequence (P47871 26-477): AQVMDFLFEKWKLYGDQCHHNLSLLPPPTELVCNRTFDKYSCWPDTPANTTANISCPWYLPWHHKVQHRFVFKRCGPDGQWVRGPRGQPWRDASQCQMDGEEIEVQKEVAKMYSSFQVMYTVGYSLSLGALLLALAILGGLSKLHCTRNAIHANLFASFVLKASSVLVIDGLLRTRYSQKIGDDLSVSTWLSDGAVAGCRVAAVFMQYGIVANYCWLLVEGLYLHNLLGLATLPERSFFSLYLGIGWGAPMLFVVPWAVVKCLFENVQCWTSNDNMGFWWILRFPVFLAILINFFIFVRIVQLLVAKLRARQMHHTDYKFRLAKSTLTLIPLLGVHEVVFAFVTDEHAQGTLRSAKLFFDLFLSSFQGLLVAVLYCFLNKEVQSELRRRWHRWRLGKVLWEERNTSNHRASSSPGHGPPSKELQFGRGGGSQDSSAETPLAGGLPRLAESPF
Test: cell-based

| SMILES | EC50 [nM] |
| --- | --- |
| CC(C)C[C@H](NC(=O)[C@H](Cc1c[nH]c2ccccc12)NC(=O)[C@H](CCCCNC(=O)COCCOCCNC(=O)COCCOCCNC(=O)CC[C@H](NC(=O)CCCCCCCCCCCCCCCCC(=O)O)C(=O)O)NC(=O)[C@@H](NC(=O)[C@H](Cc1ccccc1)NC(=O)[C@H](CC(=O)O)NC(=O)[C@H](CCC(N)=O)NC(=O)[C@H](C)NC(=O)[C@H](CCCNC(=N)N)NC(=O)[C@H](CCCNC(=N)N)NC(=O)[C@@H](NC(=O)[C@H](CC(=O)O)NC(=O)[C@H](CC(C)C)NC(=O)[C@H](Cc1ccc(O)cc1)NC(=O)[C@H](CCCCN)NC(=O)[C@H](CO)NC(=O)[C@H](Cc1ccc(O)cc1)NC(=O)[C@H](CC(=O)O)NC(=O)[C@H](CO)NC(=O)[C@@H](NC(=O)[C@H](Cc1ccccc1)NC(=O)[C@@H](NC(=O)CNC(=O)[C@H](CCC(N)=O)NC(=O)[C@H](CO)NC(=O)[C@@H](N)Cc1c[nH]cn1)[C@@H](C)O)[C@@H](C)O)[C@@H](C)O)C(C)C)C(=O)N[C@@H](CC(C)C)C(=O)N[C@@H](CO)C(=O)N[C@H](C(=O)O)[C@@H](C)O [Example 13] (H-HSQGTFTSDYSKYLDTRRAQDFVK([AEEA-AEEA-γGlu-C18 diacid])WLLST-OH; N-terminus and C-terminus assumed) | 0.016 |
| CC(C)C[C@H](NC(=O)[C@H](CC(C)C)NC(=O)[C@H](Cc1c[nH]c2ccccc12)NC(=O)[C@H](CCC(N)=O)NC(=O)[C@@H](NC(=O)[C@H](Cc1ccccc1)NC(=O)[C@H](CC(=O)O)NC(=O)[C@H](CCC(N)=O)NC(=O)[C@H](C)NC(=O)[C@H](CCCNC(=N)N)NC(=O)[C@H](CCCNC(=N)N)NC(=O)[C@H](CO)NC(=O)[C@H](CC(=O)O)NC(=O)[C@H](CC(C)C)NC(=O)[C@H](Cc1ccc(O)cc1)NC(=O)[C@H](CCCCN)NC(=O)[C@H](CO)NC(=O)[C@H](Cc1ccc(O)cc1)NC(=O)[C@H](CC(=O)O)NC(=O)[C@H](CO)NC(=O)[C@@H](NC(=O)[C@H](Cc1ccccc1)NC(=O)[C@@H](NC(=O)CNC(=O)[C@H](CCC(N)=O)NC(=O)[C@H](CO)NC(=O)[C@@H](N)Cc1c[nH]cn1)[C@@H](C)O)[C@@H](C)O)C(C)C)C(=O)N[C@@H](CC(N)=O)C(=O)N[C@@H](CCCCNC(=O)CC[C@H](NC(=O)CC[C@H](NC(=O)COCCOCCNC(=O)COCCOCCNC(=O)CC[C@H](NC(=O)CCCCCCCCCCCCCCCCC(=O)O)C(=O)O)C(=O)O)C(=O)O)C(=O)O [Example 53, N^ε29-([(4S)-5-hydroxy-4-[[(4S)-5-hydroxy-4-[[2-[2-[2-[[2-[2-[2-[[(4S)-5-hydroxy-4-[(18-hydroxy-18-oxooctadecanoyl)amino]-5-oxopentanoyl]amino]ethoxy]ethoxy]acetyl]amino]ethoxy]ethoxy]acetyl]amino]-5-oxopentanoyl]amino]-5-oxopentanyl]) [Leu^27,Lys^29] Glucagon] | 0.095 |
| CC(C)C[C@H](NC(=O)[C@H](Cc1ccc(O)cc1)NC(=O)[C@H](CCCCN)NC(=O)[C@H](CO)NC(=O)[C@H](Cc1ccc(O)cc1)NC(=O)[C@H](CC(=O)O)NC(=O)[C@H](CO)NC(=O)[C@@H](NC(=O)[C@H](Cc1ccccc1)NC(=O)[C@@H](NC(=O)CNC(=O)[C@H](CCC(N)=O)NC(=O)[C@H](CO)NC(=O)[C@@H](N)Cc1c[nH]cn1)[C@@H](C)O)[C@@H](C)O)C(=O)N[C@@H](CC(=O)O)C(=O)N[C@@H](CO)C(=O)N[C@@H](CCCNC(=N)N)C(=O)N[C@@H](CCCNC(=N)N)C(=O)N[C@@H](C)C(=O)N[C@@H](CCC(N)=O)C(=O)N[C@@H](CC(=O)O)C(=O)N[C@@H](Cc1ccccc1)C(=O)N[C@H](C(=O)N[C@@H](CCC(N)=O)C(=O)N[C@@H](Cc1c[nH]c2ccccc12)C(=O)N[C@@H](CC(C)C)C(=O)N[C@@H](CC(C)C)C(=O)N[C@@H](CCCCNC(=O)CC[C@H](NC(=O)CC[C@H](NC(=O)COCCOCCNC(=O)COCCOCCNC(=O)CC[C@H](NC(=O)CCCCCCCCCCCCCCCCC(=O)O)C(=O)O)C(=O)O)C(=O)O)C(=O)N[C@H](C(=O)O)[C@@H](C)O)C(C)C [Example 52, N^ε28-([(4S)-5-hydroxy-4-[[(4S)-5-hydroxy-4-[[2-[2-[2-[[2-[2-[2-[[(4S)-5-hydroxy-4-[(18-hydroxy-18-oxooctadecanoyl)amino]-5-oxopentanoyl]amino]ethoxy]ethoxy]acetyl]amino]ethoxy]ethoxy]acetyl]amino]-5-oxopentanoyl]amino]-5-oxopentanoyl]) [Leu^27,Lys^28] Glucagon] | 0.055 |

The next lines start with the values.

| EC50 [nM] | SMILES |
| --- | --- |
| 0.54 | CSCC[C@H](NC(=O)[C@H](CC(C)C)NC(=O)[C@H](Cc1c[nH]c2ccccc12)NC(=O)[C@H](CCC(N)=O)NC(=O)[C@@H](NC(=O)[C@H](Cc1ccccc1)NC(=O)[C@H](CC(=O)O)NC(=O)[C@H](CCCCNC(=O)COCCOCCNC(=O)CC[C@H](NC(=O)CCCCCCCCCCCCCCCCC(=O)O)C(=O)O)NC(=O)[C@H](C)NC(=O)[C@H](CCCNC(=N)N)NC(=O)[C@H](CCCNC(=N)N)NC(=O)[C@H](CO)NC(=O)[C@H](CC(=O)O)NC(=O)[C@H](CC(C)C)NC(=O)[C@H](Cc1ccc(O)cc1)NC(=O)[C@H](CCCCN)NC(=O)[C@H](CO)NC(=O)[C@H](Cc1ccc(O)cc1)NC(=O)[C@H](CC(=O)O)NC(=O)[C@H](CO)NC(=O)[C@@H](NC(=O)[C@H](Cc1ccccc1)NC(=O)[C@@H](NC(=O)CNC(=O)[C@H](CCC(N)=O)NC(=O)[C@@H](CO)NC(=O)[C@@H](N)Cc1c[nH]cn1)[C@@H](C)O)[C@@H](C)O)C(C)C)C(=O)N[C@@H](CC(N)=O)C(=O)N[C@H](C(=O)N[C@@H](CCCCN)C(N)=O)[C@@H](C)O [Example 23, N^α-(N^ε24 [2-[2-[2-[[(4S)-5-hydroxy-4-[(18-hydroxy-18-oxo-octadecanoyl)amino]-5-oxo-pentanoyl]amino]ethoxy]ethoxy]acetyl] [D-Ser^e, Lys^20] Glucagonyl) Lysinyl amide] |
| 0.021 | CC(C)C[C@H](NC(=O)[C@H](Cc1ccc(O)cc1)NC(=O)[C@H](CCCCN)NC(=O)[C@H](CO)NC(=O)[C@H](Cc1ccc(O)cc1)NC(=O)[C@H](CC(=O)O)NC(=O)[C@H](CO)NC(=O)[C@@H](NC(=O)[C@H](Cc1ccccc1)NC(=O)[C@@H](NC(=O)CNC(=O)[C@H](CCC(N)=O)NC(=O)[C@H](CO)NC(=O)[C@@H](N)Cc1c[nH]cn1)[C@@H](C)O)[C@@H](C)O)C(=O)N[C@@H](CC(=O)O)C(=O)N[C@@H](CO)C(=O)N[C@@H](CCCNC(=N)N)C(=O)N[C@@H](CCCNC(=N)N)C(=O)N[C@@H](C)C(=O)N[C@@H](CCC(N)=O)C(=O)N[C@@H](CCC(=O)O)C(=O)N[C@@H](Cc1ccccc1)C(=O)N[C@H](C(=O)N[C@@H](CCCCNC(=O)COCCOCCNC(=O)COCCOCCNC(=O)CC[C@H](NC(=O)CCCCCCCCCCCCCCCCC(=O)O)C(=O)O)C(=O)N[C@@H](Cc1c[nH]c2ccccc12)C(=O)N[C@@H](CC(C)C)C(=O)N[C@@H](CC(C)C)C(=O)N[C@@H](CC(N)=O)C(=O)N[C@H](C(=O)O)[C@@H](C)O)C(C)C [Example 48] |
